Source: patent publication US4755511A, “Tricyclic pyridazinone compounds” (Smith Kline & French Laboratories Limited, priority 1984, dated 1988)

Columns and labels:
[1] = Curran et al, J. Med. Chem. 1974, p 273; cited from earlier work
ventricular strips = assay: Cardiac stimulant activity in vitro: force of contraction of electrically stimulated guinea pig right ventricular strips; conditions: Cavia porcellus; 50% increase in force of contraction; 0.5 Hz stimulation, Krebs Henseleit solution, 37° C.
Procedure: The compounds of formula (I) and their pharmaceutically acceptable salts are tested for cardiac stimulant activity following a procedure based on that of S. […]. Pharm & Exp. Therapeutics, 200, 352-362 (1977)). Guinea pigs (500-700 g) of either sex are sacrificed and the hearts are quickly removed and transferred to a dissecting dish containing oxygenated bathing fluid. While in the bathing medium, the right ventricle is cut into two strips. The strips are each suspended in a 75 ml bath containing Krebs Henseleit solution at 37° C. and the bath is bubbled with 95% oxygen and 5% carbon dioxide. The ventricular strips are electrically stimulated at a frequency of 0.5 Hz, at double the threshold voltage. A resting tension of 1.0 g is applied to the strips and the tension is kept constant by readjustment during an equilibration period of 60 minutes. The bathing fluid is frequently changed during this period. When a steady base line is obtained, a compound under test is added to the bathing fluid and a cumulative concentration response curve is plotted. […] In the above test method the compounds of the Examples gave the following data : […]

[2] = tested on: left ventricular dp/dt max; assay: Cardiac stimulant activity in vivo in anaesthetised cats (left ventricular dp/dt max, i.v.); design: species or system cat; key to Relative Duration: ***: Long; **: medium; *: short; conditions: for ED50: Felis catus, read-out: ED50 (dose to increase left ventricular dp/dt max by 50%), intravenous, anaesthetised cats pretreated with ganglion blocker (mecamylamine or pempidine) and propranolol; for Relative Duration: estimated in the anaesthetised cats following i.v. administration

Row | SMILES | EC50 (ventricular strips) [µM] | hypotensive activity [1] | ED50 [2] [µmol/kg] | Relative Duration [2]
1 | COc1ccc2c(c1)CCC1CC(=O)NN=C21 (stereo not drawn) [8-Methoxy-4,4a,5,6-tetrahydrobenzo[h]cinnolin-3[2H]-one] | – | not showing any hypotensive activity | – | –
2 | NC(=O)c1ccc2c(c1)CCC1CC(=O)NN=C21 (stereo not drawn) [Example 17, 8-Carboxamido-4,4a,5,6-tetrahydrobenzo[h]cinnolin-3[2H]-one] | – | – | 1.2 | **
3 | CC12CCc3cc(C(N)=O)ccc3C1=NNC(=O)C2 (stereo not drawn) [Example 19, 8-Carboxamido-4a-methyl-4,4a,5,6-tetrahydrobenzo[h]cinnolin-3[2H]-one] | – | – | 1.6 | **
4 | COc1ccc2c(c1)CCc1cc(=O)[nH]nc1-2 [dehydro analogue, 5,6-Dihydro-8-methoxybenzo[h]cinnolin-3[2H]-one] | – | not showing any hypotensive activity | – | –

Now from value to molecule, other results behind:

Row | EC50 (ventricular strips) [µM] | SMILES | hypotensive activity [1] | ED50 [2] [µmol/kg] | Relative Duration [2]
5 | 14 | Nc1ccc2c(c1)CC1CC(=O)NN=C21 (stereo not drawn) [Example 1, 7-Amino-4,4a-dihydro-[5H]-indeno[1,2-c]pyridazin-3[2H]-one] | – | 1.8 | **
6 | 27 | CC12CC(=O)NN=C1c1ccc(C(N)=O)cc1C2 (stereo not drawn) [Example 3, 7-Carboxamido-4,4a-dihydro-4a-methyl-[5H]-indeno[1,2-C]-pyridazin-3[2H]-one] | – | 0.4 | *
7 | 21 | COc1ccc2c(c1)CC1(C)CC(=O)NN=C21 (stereo not drawn) [Example 7, 4,4a-Dihydro-7-methoxy-4a-methyl-[5H]-indeno[1,2-c]-pyridazin-3[2H]-one] | – | 1.4 | **
8 | 23 | COc1ccc2c(c1)CCC1(C)CC(=O)NN=C21 (stereo not drawn) [Example 10, 8-Methoxy-4a-methyl-4,4a,5,6-tetrahydrobenzo[h]cinnolin-3[2H]-one] | – | 0.2 | *
9 | 22 | CN=C(NC#N)Nc1ccc2c(c1)CCC1CC(=O)NN=C21 (stereo not drawn) [Example 15, 8-(N^2 -Methyl-N^3-cyanoguanidino)-4,4a,5,6-tetrahydrobenzo-[h]cinnolin-3[2H]-one] | – | 1.2 | **
